Assay results: patent US6737383B1, “Herbicidal oxadiazolidines” (priority 1999, dated 2004)

How the values were obtained:
bedstraw = assay: Test B pre/postemergence bedstraw; type: in vivo, Galium aparine
Procedure, shortened: (§1)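 Herbicidal effect was estimated by eye on a ten-point control scale after plants spent twelve to sixteen days in a greenhouse following soil or foliar treatment. Foliar sprays targeted plants at one to four leaves; all doses were formulated in a non-phytotoxic solvent with surfactant.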

surinam grass = assay: Test B pre/postemergence surinam grass; type: in vivo, Brachiaria decumbens
Procedure, shortened: as §1

cocklebur = assay: Test B pre/postemergence cocklebur; type: in vivo, Xanthium strumarium
Procedure, shortened: as §1

corn = assay: Test B pre/postemergence corn; type: in vivo, Zea mays
Procedure, shortened: as §1

giant foxtail = assay: Test B pre/postemergence giant foxtail; type: in vivo, Setaria faberii
Procedure, shortened: as §1

pigweed = assay: Test B pre/postemergence pigweed; type: in vivo, Amaranthus retroflexus
Procedure, shortened: as §1

rape = assay: Test B pre/postemergence rape; type: in vivo, Brassica napus
Procedure, shortened: as §1

soybean = assay: Test B pre/postemergence soybean; type: in vivo, Glycine max
Procedure, shortened: as §1

sugar beet = assay: Test B pre/postemergence sugar beet; type: in vivo, Beta vulgaris
Procedure, shortened: as §1

velvetleaf = assay: Test B pre/postemergence velvetleaf; type: in vivo, Abutilon theophrasti
Procedure, shortened: as §1

wheat = assay: Test B pre/postemergence wheat; type: in vivo, Triticum aestivum
Procedure, shortened: as §1

wild oat = assay: Test B pre/postemergence wild oat; type: in vivo, Avena fatua
Procedure, shortened: as §1

purple nutsedge = assay: Test B pre/postemergence purple nutsedge; type: in vivo, Cyperus rotundus
Procedure, shortened: as §1

rice = assay: Test B flood test rice; type: in vivo, Oryza sativa
Procedure, shortened: (§2)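 Each value is a visual injury score relative to controls, with 10 meaning complete control and 0 no effect. Evaluation took place twelve to sixteen days after the 2-leaf-stage plants were treated and kept in the greenhouse.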

smallflower flatsedge = assay: Test B flood test smallflower flatsedge; type: in vivo, Cyperus difformis
Procedure, shortened: as §2

duck salad = assay: Test B flood test duck salad; type: in vivo, Heteranthera limosa
Procedure, shortened: as §2

[1] = Preemergence, Rate 62 g/ha, scale of 0 to 10 where 0 is no effect and 10 is complete control
[2] = Preemergence, Rate 125 g/ha, 0 is no effect, 10 is complete control
[3] = Preemergence, Rate 250 g/ha, scale 0 to 10, 0 is no effect, 10 is complete control
[4] = Preemergence, Rate 500 g/ha, scale of 0 to 10 where 0 is no effect and 10 is complete control
[5] = Rate 62 g/ha, Postemergence, scale of 0 to 10 where 0 is no effect and 10 is complete control
[6] = Rate 125 g/ha, Postemergence, scale 0 to 10
[7] = Rate 500 g/ha, Postemergence, scale 0 to 10
[8] = Rate 62 g/ha, headed Pre-emergence (flood test species), scale 0 to 10 (0 no effect, 10 complete control)
[9] = Rate 125 g/ha, Pre-emergence, flood test species, scale 0 to 10 where 0 is no effect and 10 is complete control
[10] = Rate 250 g/ha, Pre-emergence, flood-test species, scale 0 to 10, 0 is no effect, 10 is complete control
[11] = Rate 500 g/ha, headed Pre-emergence (flood test species), scale 0 to 10 (0 no effect, 10 complete control)

Cc1ccccc1-n1c(=O)on(C(=O)N(c2ccc(S(C)(=O)=O)cc2)C(C)C)c1=O [Compound 203]
0: Bedstraw plant response rating (bedstraw; [1]) | Bedstraw plant response rating (0 to 10 scale) (bedstraw; [2]) | Bedstraw plant response rating (bedstraw; [3]) | Plant response rating, Bedstraw (bedstraw; [4]) | Bedstraw plant response rating (bedstraw; [5]) | Bedstraw plant response rating (bedstraw; [6]) | Plant response rating (0 to 10; 0 is no effect, 10 is complete control), Bedstraw (bedstraw; Rate 250 g/ha, Postemergence) | Bedstraw plant response rating (bedstraw; [7]) | B. signalgrass plant response rating (surinam grass; [1]) | B. signalgrass plant response rating (0 to 10 scale) (surinam grass; [2]) | B. signalgrass plant response rating (surinam grass; [3]) | Plant response rating, B. signalgrass (surinam grass; [4]) | B. signalgrass plant response rating (surinam grass; [5]) | B. signalgrass plant response rating (surinam grass; Rate 125 g/ha, Postemergence, scale 0 (no effect) to 10 (complete control)) | Plant response rating, B. signalgrass (surinam grass; Rate 250 g/ha, Postemergence, scale 0 to 10, 0 is no effect, 10 is complete control) | B. signalgrass plant response rating (surinam grass; Rate 500 g/ha, Postemergence, scale 0 to 10, 0 no effect, 10 complete control) | Cocklebur plant response rating (cocklebur; [1]) | Cocklebur plant response rating (0 to 10 scale) (cocklebur; [2]) | Cocklebur plant response rating (cocklebur; [3]) | Plant response rating, Cocklebur (cocklebur; [4]) | Cocklebur plant response rating (cocklebur; [5]) | Cocklebur plant response rating (cocklebur; [6]) | Plant response rating (0 to 10; 0 is no effect, 10 is complete control), Cocklebur (cocklebur; Rate 250 g/ha, Postemergence) | Cocklebur plant response rating (cocklebur; [7]) | Corn plant response rating (corn; [1]) | Corn plant response rating (0 to 10 scale) (corn; [2]) | Corn plant response rating (corn; [3]) | Plant response rating, Corn (corn; [4]) | Corn plant response rating (corn; [5]) | Corn plant response rating (corn; [6]) | Plant response rating (0 to 10; 0 is no effect, 10 is complete control), Corn (corn; Rate 250 g/ha, Postemergence) | Corn plant response rating (corn; [7]) | Giant foxtail plant response rating (giant foxtail; [1]) | Giant foxtail plant response rating (0 to 10 scale) (giant foxtail; [2]) | Giant foxtail plant response rating (giant foxtail; [3]) | Plant response rating, Giant foxtail (giant foxtail; [4]) | Giant foxtail plant response rating (giant foxtail; [5]) | Giant foxtail plant response rating (giant foxtail; [6]) | Plant response rating (0 to 10; 0 is no effect, 10 is complete control), Giant foxtail (giant foxtail; Rate 250 g/ha, Postemergence) | Giant foxtail plant response rating (giant foxtail; [7]) | Redroot pigweed plant response rating (pigweed; [1]) | Redroot pigweed plant response rating (0 to 10 scale) (pigweed; [2]) | Redroot pigweed plant response rating (pigweed; [3]) | Plant response rating, Redroot pigweed (pigweed; [4]) | Redroot pigweed plant response rating (pigweed; [5]) | Redroot pigweed plant response rating (pigweed; [6]) | Plant response rating (0 to 10; 0 is no effect, 10 is complete control), Redroot pigweed (pigweed; Rate 250 g/ha, Postemergence) | Redroot pigweed plant response rating (pigweed; [7]) | Rape plant response rating (rape; [1]) | Rape plant response rating (0 to 10 scale) (rape; [2]) | Rape plant response rating (rape; [3]) | Plant response rating, Rape (rape; [4]) | Rape plant response rating (rape; [5]) | Rape plant response rating (rape; [6]) | Plant response rating (0 to 10; 0 is no effect, 10 is complete control), Rape (rape; Rate 250 g/ha, Postemergence) | Rape plant response rating (rape; [7]) | Soybean plant response rating (soybean; [1]) | Soybean plant response rating (0 to 10 scale) (soybean; [2]) | Soybean plant response rating (soybean; [3]) | Plant response rating, Soybean (soybean; [4]) | Soybean plant response rating (soybean; [5]) | Soybean plant response rating (soybean; [6]) | Plant response rating (0 to 10; 0 is no effect, 10 is complete control), Soybean (soybean; Rate 250 g/ha, Postemergence) | Soybean plant response rating (soybean; [7]) | Sugarbeets plant response rating (sugar beet; [1]) | Sugarbeets plant response rating (0 to 10 scale) (sugar beet; [2]) | Sugarbeets plant response rating (sugar beet; [3]) | Plant response rating, Sugarbeets (sugar beet; [4]) | Sugarbeets plant response rating (sugar beet; [5]) | Sugarbeets plant response rating (sugar beet; [6]) | Plant response rating (0 to 10; 0 is no effect, 10 is complete control), Sugarbeets (sugar beet; Rate 250 g/ha, Postemergence) | Sugarbeets plant response rating (sugar beet; [7]) | Velvetleaf plant response rating (velvetleaf; [1]) | Velvetleaf plant response rating (velvetleaf; [3]) | Plant response rating, Velvetleaf (velvetleaf; [4]) | Velvetleaf plant response rating (velvetleaf; [5]) | Velvetleaf plant response rating (velvetleaf; [6]) | Plant response rating (0 to 10; 0 is no effect, 10 is complete control), Velvetleaf (velvetleaf; Rate 250 g/ha, Postemergence) | Wheat plant response rating (wheat; [1]) | Wheat plant response rating (wheat; [3]) | Plant response rating, Wheat (wheat; [4]) | Wheat plant response rating (wheat; [5]) | Wheat plant response rating (wheat; [6]) | Plant response rating (0 to 10; 0 is no effect, 10 is complete control), Wheat (wheat; Rate 250 g/ha, Postemergence) | Wild oats plant response rating (wild oat; [1]) | Wild oats plant response rating (wild oat; [3]) | Plant response rating, Wild oats (wild oat; [4]) | Wild oats plant response rating (wild oat; [5]) | Wild oats plant response rating (wild oat; [6]) | Plant response rating (0 to 10; 0 is no effect, 10 is complete control), Wild oats (wild oat; Rate 250 g/ha, Postemergence) | Nutsedge plant response rating (purple nutsedge; [1]) | Nutsedge plant response rating (0 to 10 scale) (purple nutsedge; [2]) | Nutsedge plant response rating (purple nutsedge; [3]) | Plant response rating, Nutsedge (purple nutsedge; [4]) | Nutsedge plant response rating (purple nutsedge; [5]) | Nutsedge plant response rating (purple nutsedge; [6]) | Plant response rating (0 to 10; 0 is no effect, 10 is complete control), Nutsedge (purple nutsedge; Rate 250 g/ha, Postemergence) | Nutsedge plant response rating (purple nutsedge; [7]) | Rice plant response rating (rice; [8]) | Rice plant response rating (rice; [9]) | Rice plant response rating (rice; [10]) | Plant response rating, Rice (rice; [11]) | S. Flatsedge plant response rating (smallflower flatsedge; [8]) | S. Flatsedge plant response rating (smallflower flatsedge; [9]) | S. Flatsedge plant response rating (smallflower flatsedge; [10]) | S. Flatsedge plant response rating (smallflower flatsedge; Rate 500 g/ha, Pre-emergence, flood test species, scale 0 to 10 (0 no effect, 10 complete control)) | Ducksalad plant response rating (duck salad; [8]) | Ducksalad plant response rating (duck salad; [9]) | Ducksalad plant response rating (duck salad; [10]) | Plant response rating, Ducksalad (duck salad; [11])
